The source of these data is ChEMBL document CHEMBL4308867, “Discovery of naldemedine: A potent and orally available opioid receptor antagonist for treatment of opioid-induced adverse effects” (Bioorg Med Chem Lett, 2019).

The target of data set [1] is Mu-type opioid receptor (Homo sapiens, UniProt P35372). Description: Displacement of [3H]-DAMGO from recombinant human mu-opioid receptor expressed in CHOK1 cells. The class given is cell-based.
The target of data set [2] is Delta-type opioid receptor (Homo sapiens, UniProt P41143). Nature of the data set: Displacement of [3H]-DADLE from recombinant human delta-opioid receptor expressed in HEK293 cells. The class given is cell-based. (In general: In a radioligand displacement assay an active substance lowers the binding of a labelled ligand.)
Delta-type opioid receptor, sequence (P41143 whole entry): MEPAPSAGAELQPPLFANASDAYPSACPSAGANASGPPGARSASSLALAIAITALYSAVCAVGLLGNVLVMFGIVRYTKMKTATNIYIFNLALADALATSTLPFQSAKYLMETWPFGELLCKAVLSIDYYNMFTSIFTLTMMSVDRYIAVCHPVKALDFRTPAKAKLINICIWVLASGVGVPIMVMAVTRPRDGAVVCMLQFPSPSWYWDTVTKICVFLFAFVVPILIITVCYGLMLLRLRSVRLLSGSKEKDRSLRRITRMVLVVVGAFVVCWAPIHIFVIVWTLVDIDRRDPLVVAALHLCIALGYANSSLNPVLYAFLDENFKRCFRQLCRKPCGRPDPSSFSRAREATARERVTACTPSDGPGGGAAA
Data set [3] can be described thus: Total clearance in rat at 1 mg/kg, po administered as cassette dose. The format is ADME, organism-based. The following applies: in vivo.
Data set [4] can be described thus: Oral bioavailability in rat at 1 mg/kg administered as cassette dose. The format is ADME, organism-based. The following applies: in vivo.
A short description of data set [5]: Brain to blood partition coefficient, Kp of the compound in rat at 1 mg/kg, po administered as cassette dose. The class given is ADME, organism-based.
A short description of data set [6]: Cmax in rat brain at 1 mg/kg, po administered as cassette dose. On the set-up: dose 1 mg/kg, route oral. The class given is ADME, organism-based.
Data set [7] in a line: Chemical stability of the compound. The class given is physicochemical.
The nature of data set [8]: Stability in plasma (unknown origin) assessed as parent compound remaining after 24 hrs. The class given is ADME, cell-free. The following applies: read-out: Stability.
A short description of data set [9]: Stability in human microsomes assessed as parent compound remaining at 0.5 uM measured after 0.5 hrs. The format is ADME, Microsome. The following applies: read-out: Stability.
The nature of data set [10]: Stability in rat microsomes assessed as parent compound remaining at 0.5 uM measured after 0.5 hrs. The class given is ADME, Microsome. The following applies: read-out: Stability.

pKi: −log10 of the molar value.

Mu-type opioid receptor, sequence (P35372 whole entry): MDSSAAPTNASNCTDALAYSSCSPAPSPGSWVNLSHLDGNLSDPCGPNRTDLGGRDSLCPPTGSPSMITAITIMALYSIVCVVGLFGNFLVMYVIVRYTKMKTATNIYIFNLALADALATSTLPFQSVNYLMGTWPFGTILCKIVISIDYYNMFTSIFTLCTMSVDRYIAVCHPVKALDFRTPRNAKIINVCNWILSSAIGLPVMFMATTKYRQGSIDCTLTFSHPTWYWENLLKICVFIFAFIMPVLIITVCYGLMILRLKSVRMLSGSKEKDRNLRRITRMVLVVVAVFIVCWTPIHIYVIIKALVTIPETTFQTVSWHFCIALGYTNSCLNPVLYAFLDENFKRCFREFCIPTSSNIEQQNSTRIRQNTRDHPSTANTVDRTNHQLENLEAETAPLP

In general, pKi refers to the negative decadic logarithm of the Ki, by convention in mol/L. One may read the CL/F as clearance divided by bioavailability, as obtained after extravascular dosing. The term bioavailability denotes dose-corrected exposure relative to a reference, in per cent. By Kp is commonly meant tissue or fluid exposure divided by exposure in the circulation. As usually defined, the Cmax is the peak of the concentration-time curve. In the case of `CC(C)(NC(=O)C1=C(O)[C@@H]2Oc3c(O)ccc4c3[C@@]23CCN(CC2CC2)[C@H](C4)[C@]3(O)C1)C(=O)O`, the pKi in data set [1] was 7.34; in data set [2], 7.93. The CL/F in data set [3] is 28 mL/min/kg. This compound returned a bioavailability in data set [4] of 0.52%. The Kp in data set [5] worked out at 0.04. This compound also yielded a Cmax in data set [6] of 0.055 ng/mL. Further, the Stability entry in data set [7] is given as “Stable”. Moreover, the remaining at 24 h in data set [8] was greater than 80%.

For `O=C(O)c1ccc2c3c([nH]c2c1Cl)[C@@H]1Oc2c(O)ccc4c2[C@@]12CCN(CC1CC1)[C@H](C4)[C@]2(O)C3`, the values for the pKi in data set [1] and in [2] were 7.72 and 9.00, respectively. The remaining at 0.5 h, 0.5 µM in [9] stood at 97%; in data set [10] it was 100%. The compound further returned an apparent clearance (CL/F) in data set [3] of 18.1 mL/min/kg. This compound also gave a bioavailability in data set [4] of 0.2%. The concentration ratio (Kp) in data set [5] was determined as 0.03. The concentration in data set [6] peaked (Cmax) at 0.032 ng/mL.

Consider `O=C(Nc1ccc2cc[nH]c2c1)C1=C(O)[C@@H]2Oc3c(O)ccc4c3[C@@]23CCN(CC2CC2)[C@H](C4)[C@]3(O)C1`, for which the pKi in data set [1] was 8.62; in data set [2] it was 7.72. Also, the values for the remaining at 0.5 h, 0.5 µM in data set [9] and in [10] were 93% and 86%, respectively. This compound registered a CL/F in data set [3] of 28 mL/min/kg. Further, the bioavailability in data set [4] worked out at 13%. The Kp in data set [5] is 0.04. In data set [6], this compound returned a Cmax of 0.56 ng/mL. The Stability entry in data set [7] is given as “Stable”. In data set [8], the remaining at 24 h is greater than 80%.

Regarding `COC(=O)C(C)(C)NC(=O)C1=C(O)[C@@H]2Oc3c(O)ccc4c3[C@@]23CCN(CC2CC2)[C@H](C4)[C@]3(O)C1`, the results for the negative-log Ki (pKi) in data set [1] and in data set [2] were 7.78 and 8.40, respectively. For the same compound, the figures for the remaining at 0.5 h, 0.5 µM in [9] and in data set [10] were 101% and 103%, respectively. This compound showed a CL/F in [3] of 25 mL/min/kg. In data set [4], this compound returned a bioavailability of 68%. Further, the Kp in [5] is 0.08. Moreover, in data set [6], the concentration peaked (Cmax) at 5.1 ng/mL. Further, the Stability entry in data set [7] is reported as “Stable”. Besides, the remaining at 24 h in data set [8] is greater than 80%.

In the case of `O=C(O)c1ccc2c3c([nH]c2c1)[C@@H]1Oc2c(O)ccc4c2[C@@]12CCN(CC1CC1)[C@H](C4)[C@]2(O)C3`, the pKi in [1] is 7.74; in data set [2] it was 9.21. Further, the figures for the remaining at 0.5 h, 0.5 µM in data set [9] and in data set [10] were 98% and 97%, respectively. This compound also registered a CL/F in data set [3] of 71.8 mL/min/kg. Also, the bioavailability in data set [4] came out at 0.1%. Further, the Kp in [5] worked out at 0.03. This compound displayed a Cmax in data set [6] of 0.023 ng/mL.

On to `Cc1n[nH]c2c1C[C@@]1(O)[C@H]3Cc4ccc(O)c5c4[C@@]1(CCN3CC1CC1)[C@H]2O5`, for which the figures for the pKi in [1] and in data set [2] were 7.62 and 8.92, respectively. Also, the remaining at 0.5 h, 0.5 µM was determined as 98% in data set [9] and 81% in [10]. Also, in [3], the apparent clearance (CL/F) came to 199 mL/min/kg. Further, the bioavailability in [4] stood at 26.9%. Moreover, in data set [5], the Kp was found to be 0.25. The peak level in data set [6] (Cmax) was 2.2 ng/mL.

Take `C[C@H](CO)NC(=O)C1=C(O)[C@@H]2Oc3c(O)ccc4c3[C@@]23CCN(CC2CC2)[C@H](C4)[C@]3(O)C1`: the pKi in [1] was 7.71; in [2] it was 7.74. This compound came in with a CL/F in [3] of 27 mL/min/kg. This compound also displayed a bioavailability in data set [4] of 3.4%. Moreover, the concentration ratio (Kp) in [5] worked out at 0.05. In data set [6], the concentration peaked (Cmax) at 0.21 ng/mL. In addition, the Stability result in data set [7] is given as “Stable”. For the same compound, the remaining at 24 h in data set [8] was greater than 80%.

For the compound `Cc1nc(N)nc2c1C[C@@]1(O)[C@H]3Cc4ccc(O)c5c4[C@@]1(CCN3CC1CC1)[C@H]2O5`, the negative-log Ki (pKi) in [1] was 8.07; in [2], 8.68. In addition, the values for the remaining at 0.5 h, 0.5 µM in data set [9] and in [10] were 92% and 58%, respectively. The compound further showed an apparent clearance (CL/F) in data set [3] of 220 mL/min/kg. Moreover, the bioavailability in data set [4] was determined as 42.5%. The compound also came in with a Kp in data set [5] of 0.31. For the same compound, in data set [6], the Cmax was 4.6 ng/mL.
